Reference: patent publication US20230111914A1, “SYNTHETIC TRITERPENOIDS WITH NITROGEN-BASED SUBSTITUENTS AT C-17 AND METHODS OF USE THEREOF” (REATA PHARMACEUTICALS, INC., priority 2019, published 2023)
Where “and” joins values, the source holds several entries; their conditions need not be identical. Equal values may be shown once. Read-outs that look alike come from different tables or passages of the source. Marks after values point to notes of the source that are not given here.

How the values were obtained:
[1] = system: AREc32 reporter cell line (luciferase reporter under eight copies of the rat GSTA2 ARE sequence); test: AREc32 luciferase reporter activation; assay type: cell-based, human; settings: for EC (2-fold): Homo sapiens, read-out: AREc32 EC2X (Mean ± SD); for AREc32 Relative to CC in Same Experiment (Mean ± SD): comparison compound CC4, average of ratios from three replicate experiments
CYP3A4 = target: T1, CYP3A4 (Homo sapiens, UniProt P08684); test: CYP3A4 (midazolam) inhibition in human liver microsomes; assay type: in vitro ADME; settings: probe midazolam; human liver microsomes 0.1 mg/mL, midazolam substrate, 1 μM test compound, 37° C. 10 min
T1 construct: containing 0.1 mg/mL human liver microsomes; from tissue; host or cells: human liver microsomes
Experimental: Methods. Several compounds were evaluated for CYP3A4 (midazolam) inhibition in human liver microsomes at 1 μM. CYP3A4 inhibition was tested using an in vitro assay as generally described in Dierks et al. (Drug Metabolism Deposition, 29:23-29, 2001, which is incorporated by reference herein). Each sample, containing 0.1 mg/mL human liver microsomes, […] as substrate, and 1 μM of test compound, was incubated at 37° C. for 10 min. Following incubation, the metabolite 1-hydroxymidazolam was measured using HPLC-MS/MS. Peak areas corresponding to the metabolite of the substrate were recorded. The percent of control activity was then calculated by comparing the peak area obtained in the presence of the test compound to that obtained in the absence of the test compound. Subsequently, the percent inhibition was calculated by subtracting the percent control activity from 100 for each compound.

[2] = system: IFNγ-induced NO production in RAW 264.7 cells; test: Nitric oxide suppression assay (IFNγ-induced NO production, Griess nitrite readout); assay type: cell-based, mouse; settings: for IC50: Mus musculus
[3] = Arec32, concentration that increases the luminescence signal 2-fold above vehicle, 19 h treatment
[4] = RAW264.7, RAW 264.7 cells, 2 h pretreatment, 20 ng/mL interferon gamma 24 h, average of trials per footnote, read-out: NO IC50

T1 sequence (P08684 whole entry): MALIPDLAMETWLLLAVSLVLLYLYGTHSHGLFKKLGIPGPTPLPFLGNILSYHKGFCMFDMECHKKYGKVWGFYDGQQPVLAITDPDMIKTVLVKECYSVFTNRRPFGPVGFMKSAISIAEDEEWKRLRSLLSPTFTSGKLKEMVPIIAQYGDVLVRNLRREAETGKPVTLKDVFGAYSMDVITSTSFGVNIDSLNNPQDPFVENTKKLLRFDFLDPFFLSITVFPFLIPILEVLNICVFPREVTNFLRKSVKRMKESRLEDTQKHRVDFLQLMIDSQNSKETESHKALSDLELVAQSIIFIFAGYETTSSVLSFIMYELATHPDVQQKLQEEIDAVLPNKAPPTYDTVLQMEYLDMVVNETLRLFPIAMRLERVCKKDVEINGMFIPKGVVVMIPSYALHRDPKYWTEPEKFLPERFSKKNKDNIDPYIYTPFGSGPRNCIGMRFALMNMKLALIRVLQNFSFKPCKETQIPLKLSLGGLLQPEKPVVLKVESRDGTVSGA

Structure (SMILES) | AREc32 EC2X Relative to RTA 402 (Mean ± SD) [1] | EC (2-fold) [1, 3] [µM] | AREc32 Relative to CC in Same Experiment (Mean ± SD) [1] | inhibition at 10 min, 1 µM (CYP3A4) [%] | NO IC50 Rel. to RTA 402 [2] | times more active (NO IC50) than 63229 relative to RTA 402 [2] | times more active (NO IC50) than CC4 relative to RTA 402 [2] | IC50 [2, 4] [nM] | EC (2-fold) ([1]; Arec32, 19 h) [µM] | IC50 ([2]; RAW264.7, read-out: NO IC50) [nM]
CC1(C)CC[C@]2(n3cnnn3)CC[C@]3(C)[C@H](C(=O)C=C4[C@@]5(C)C=C(C#N)C(=O)C(C)(C)[C@@H]5CC[C@]43C)[C@@H]2C1 [Compound T36] | 0.5 ± 0.13^f fold | 0.0056 ± 0.00059 | 0.191 ± 0.009 | 52.8 | 0.77 fold and 0.77 ± 0.16^e fold | greater than 98.5 times | roughly 3.1 times | 1.96 |  | 
CC1(C)CC[C@]2(n3ccnc3)CC[C@]3(C)[C@H](C(=O)C=C4[C@@]5(C)C=C(C#N)C(=O)C(C)(C)[C@@H]5CC[C@]43C)[C@@H]2C1 [Compound T37] | 2.1 ± 0.50^f fold | 0.0243 ± 0.0027 | 0.878 ± 0.094 | 86.5 | 1.37 ± 0.26^e fold |  |  | 3.22 ± 1.52 |  | 
CNC(=O)c1cn([C@]23CCC(C)(C)C[C@H]2[C@H]2C(=O)C=C4[C@@]5(C)C=C(C#N)C(=O)C(C)(C)[C@@H]5CC[C@@]4(C)[C@]2(C)CC3)nn1 [Compound T41] | 0.8 ± 0.16^f fold | 0.0094 ± 0.00135 | 0.320 ± 0.037 | 17.1 | 1.19 ± 0.22^d fold |  |  | 4.96 ± 1.58 |  | 
CC1(C)CC[C@]2(NNC(=O)C(F)(F)F)CC[C@]3(C)[C@H](C(=O)C=C4[C@@]5(C)C=C(C#N)C(=O)C(C)(C)[C@@H]5CC[C@]43C)[C@@H]2C1 [Compound T56] | 1.5^e fold | 0.0155 |  |  | 1.70 ± 0.32^d fold |  |  | 7.04 ± 1.91 |  | 
CC1(C)CC[C@]2(N3CCC(=O)N3)CC[C@]3(C)[C@H](C(=O)C=C4[C@@]5(C)C=C(C#N)C(=O)C(C)(C)[C@@H]5CC[C@]43C)[C@@H]2C1 [Compound T58] | 5.3^e fold | 0.0565 |  |  | 2.97 ± 0.65^d fold |  |  | 12.2 ± 3.32 |  | 
CC1(C)CC[C@]2(CNC(=O)C(C)(F)F)CC[C@]3(C)[C@H](C(=O)C=C4[C@@]5(C)C=C(C#N)C(=O)C(C)(C)[C@@H]5CC[C@]43C)[C@@H]2C1 [Compound T62] | 0.3^e fold | 0.0035 |  |  | 0.51 ± 0.18^d fold |  |  | 2.12 ± 0.85 |  | 
CC1(C)CC[C@]2(CNC(=O)C(F)F)CC[C@]3(C)[C@H](C(=O)C=C4[C@@]5(C)C=C(C#N)C(=O)C(C)(C)[C@@H]5CC[C@]43C)[C@@H]2C1 [Compound T63] | 0.4^e fold | 0.004 |  |  | 0.36 ± 0.11^d fold |  |  | 1.48 ± 0.54 |  | 
C[C@@H]1C(=O)C(C#N)=C[C@]2(C)C3=CC(=O)[C@@H]4[C@@H]5CC(C)(C)CC[C@]5(CN5CCC5=O)CC[C@@]4(C)[C@]3(C)CC[C@@H]12 [Compound T65] | 0.4^e fold | 0.0047 |  |  | 0.36 ± 0.12^e fold |  |  | 0.42 ± 0.13 |  | 
C[C@@H]1C(=O)C(C#N)=C[C@]2(C)C3=CC(=O)[C@@H]4[C@@H]5CC(C)(C)CC[C@]5(CN5CCCC5=O)CC[C@@]4(C)[C@]3(C)CC[C@@H]12 [Compound T66] | 0.4^e fold | 0.0046 |  |  | 0.39 ± 0.09^e fold |  |  | 0.45 ± 0.09 |  | 
CC1(C)CC[C@]2(CNC(=O)CF)CC[C@]3(C)[C@H](C(=O)C=C4[C@@]5(C)C=C(C#N)C(=O)C(C)(C)[C@@H]5CC[C@]43C)[C@@H]2C1 [Compound T67] | 0.3^e fold |  |  |  | 0.38 ± 0.15^d fold |  |  |  | 0.0033 | 0.51 ± 0.31
COC(=O)[C@]12CCC(C)(C)C[C@H]1[C@H]1C(=O)C=C3[C@@]4(C)C=C(C#N)C(=O)C(C)(C)[C@@H]4CC[C@@]3(C)[C@]1(C)CC2 [RTA 402, reference compound] | 1.00 fold | 0.0118 ± 0.0029 |  |  | 1.00 ± 0.00 fold |  |  | 2.58 ± 1.19 |  | 
